Data as given in publication PMC6273194, “Synthesis and Evaluation of Aminothiazole-Paeonol Derivatives as Potential Anticancer Agents” (Molecules, 2016).
Read-outs that look alike come from different tables or passages of the source.

How the values were obtained:
[1] = tested on: human cervix adenocarcinoma (HeLa) cells; assay: MTT cell viability assay, HeLa; format: cell-based; settings: 48 h
Procedure: (§1) Cell lines, including human gastric adenocarcinoma (AGS), human cervix adenocarcinoma (HeLa), human pancreas adenocarcinoma (PaTu8988t), human colorectal adenocarcinoma (HT-29), human glioblastoma (U87-MG), human lung adenocarcinoma (A549), mouse colon carcinoma (CT26.WT) cells and embryonic fibroblast (BALB/3T3) were purchased from Bioresource Collection and Research Center (BCRC, Taiwan) to evaluate anticancer activity of aminothiazole-paeonol derivatives. Five cell lines were cultured in different media from Gibco (Life Technologies, Grand Island, NY, USA) and Hyclone (GE Healthcare Life Science). Cells were cultured in 90% medium mixed with 10% serum at 37 °C in humidified atmosphere with 5% CO2 and grown in T-75 flask with a feeding cycle of two to three days. The composition and procedures of preparing culture media for different cell lines were followed by instruction manual of suppliers.
(§2) The different cell lines were seeded into 96-well tissue culture plates at a concentration of 5 × 10^3 cells/100 µL/well overnight. Subsequently, the cells were treated with serial concentrations of seven paeonol derivatives. After 48 h of incubation, cell viability of each cell line was determined by MTT colorimetric assay. Briefly, 100 µL of 2 mg/mL MTT reagent (Sigma-Aldrich, St. Louis, MO, USA) was added to each well and incubated for 4 h at 37 °C. Later, the medium was aspirated and 100 µL of dimethyl sulphoxide (DMSO) added to each well; finally, the OD595 of each well was measured by ELISA reader (TECAN, Wien, Austria).

[2] = tested on: human lung adenocarcinoma (A549) cells; assay: MTT cell viability assay, A549; format: cell-based; settings: A549, 48 h
Procedure: as §1, §2

[3] = tested on: human glioblastoma (U87-MG) cells; assay: MTT cell viability assay, U87-MG; format: cell-based; settings: U-87 MG, 48 h
Procedure: as §1, §2

[4] = tested on: human colorectal adenocarcinoma (HT-29) cells; assay: MTT cell viability assay, HT-29; format: cell-based; settings: HT-29, 48 h
Procedure: as §1, §2

BALB/3T3 cells [5] = assay: MTT cell viability assay, embryonic fibroblast BALB/3T3; format: cell-based; settings: Mus musculus, BALB/3T3 fibroblasts, 48 h
Procedure: as §1, §2

[6] = tested on: human pancreas adenocarcinoma (PaTu8988t) cells; assay: MTT cell viability assay, PaTu8988t; format: cell-based; settings: PaTu 8988t, 48 h
Procedure: as §1, §2

[7] = tested on: mouse colon carcinoma (CT26.WT) cells; assay: MTT cell viability assay, CT26.WT; format: cell-based; settings: 48 h
Procedure: as §1, §2

[8] = tested on: human gastric adenocarcinoma (AGS) cells; assay: MTT cell viability assay, AGS; format: cell-based; settings: 48 h
Procedure: as §1, §2

BALB/3T3 cells [9] = settings: BALB/3T3, 72 h after treatment; ref [25],[26],[27],[28],[29],[30],[31],[32]; cited from earlier work
[10] = tested on: human gastric adenocarcinoma (AGS) cells; settings: 24 h after treatment, ref [25],[26],[27],[28],[29],[30],[31],[32]; cited from earlier work
[11] = tested on: human pancreas adenocarcinoma (PaTu8988t) cells; settings: 48 h after treatment, ref [25],[26],[27],[28],[29],[30],[31],[32]; cited from earlier work
[12] = tested on: human lung adenocarcinoma (A549) cells; settings: A549, 48 h after treatment; ref [25],[26],[27],[28],[29],[30],[31],[32]; cited from earlier work
[13] = tested on: human cervix adenocarcinoma (HeLa) cells; settings: 48 h after treatment, ref [25],[26],[27],[28],[29],[30],[31],[32]; cited from earlier work
[14] = tested on: mouse colon carcinoma (CT26.WT) cells; settings: 72 h after treatment, ref [25],[26],[27],[28],[29],[30],[31],[32]; cited from earlier work
[15] = tested on: human glioblastoma (U87-MG) cells; settings: 48 h after treatment, ref [25],[26],[27],[28],[29],[30],[31],[32]; cited from earlier work
[16] = tested on: human colorectal adenocarcinoma (HT-29) cells; settings: HT-29, 48 h after treatment; ref [25],[26],[27],[28],[29],[30],[31],[32]; cited from earlier work

| SMILES | IC50 [1] [µM] | IC50 [2] [µM] | IC50 [3] [µM] | IC50 [4] [µM] | IC50 (BALB/3T3 cells [5]) [µM] | IC50 [6] [µM] | IC50 [7] [µM] | IC50 [8] [µM] | IC50 (BALB/3T3 cells [9]) [µM] | IC50 [10] [µM] | IC50 [11] [µM] | IC50 [12] [µM] | IC50 [13] [µM] | IC50 [14] [µM] | IC50 [15] [µM] | IC50 [16] [µM] |
| --- | --- | --- | --- | --- | --- | --- | --- | --- | --- | --- | --- | --- | --- | --- | --- | --- |
| COc1ccc(-c2csc(NS(=O)(=O)c3ccc(Cl)cc3)n2)c(O)c1 [Compound 13e, 4-Chloro-N-[4-(2-hydroxy-4-methoxyphenyl)thiazol-2-yl]benzenesulfonamide] | > 50 | > 50 | > 50 | 13.4 | > 50 | > 50 | > 50 | > 50 |  |  |  |  |  |  |  |  |
| COc1ccc(-c2csc(NS(=O)(=O)c3ccc([N+](=O)[O-])cc3)n2)c(O)c1 [Compound 13g, N-[4-(2-Hydroxy-4-methoxyphenyl)thiazol-2-yl]-4-nitrobenzenesulfonamide] | > 50 | > 50 | > 50 | 47.8 | 32.2 | > 50 | 30 | > 50 |  |  |  |  |  |  |  |  |
| COc1ccc(-c2csc(NS(=O)(=O)c3ccc(Br)cc3)n2)c(O)c1 [Compound 13f, 4-Bromo-N-[4-(2-hydroxy-4-methoxyphenyl)thiazol-2-yl]benzenesulfonamide] | 16.4 | > 50 | > 50 | 11 | > 50 | 22.8 | > 50 | > 50 |  |  |  |  |  |  |  |  |
| COc1ccc(-c2csc(NS(=O)(=O)c3ccc(F)cc3)n2)c(O)c1 [Compound 13d, 4-Fluoro-N-[4-(2-hydroxy-4-methoxyphenyl)thiazol-2-yl]benzenesulfonamide] | 13.8 | > 50 | > 50 | 11.2 | > 50 | 31.4 | > 50 | 7.2 |  |  |  |  |  |  |  |  |
| COc1ccc(-c2csc(NS(=O)(=O)c3ccccc3)n2)c(O)c1 [Compound 13a, N-[4-(2-Hydroxy-4-methoxyphenyl)thiazol-2-yl]benzenesulfonamide] | > 50 | > 50 | > 50 | 20.7 | > 50 | 31.1 | > 50 | > 50 |  |  |  |  |  |  |  |  |
| COc1ccc(-c2csc(NS(=O)(=O)c3ccc(C)cc3)n2)c(O)c1 [Compound 13b, N-[4-(2-Hydroxy-4-methoxyphenyl)thiazol-2-yl]-4-methylbenzenesulfonamide] | 27.4 | > 50 | > 50 | 14.1 | > 50 | 38.7 | > 50 | 22 |  |  |  |  |  |  |  |  |
| COc1ccc(S(=O)(=O)Nc2nc(-c3ccc(OC)cc3O)cs2)cc1 [Compound 13c, N-[4-(2-Hydroxy-4-methoxyphenyl)thiazol-2-yl]-4-methoxybenzenesulfonamide] | 5.8 | > 50 | 22.5 | 4.4 | 32.7 | 15.8 | 10 | 4 |  |  |  |  |  |  |  |  |
| O=c1[nH]cc(F)c(=O)[nH]1 [Compound 5-FU, 5-fluorouracil, reference compound] | 2.2 | > 50 | > 50 | 7.2 | 1 | 12.5 | 9.2 | 43.8 | 13 | 79.5 | 11.3 | 10.3 | 0.232 | 61 | 4.9 | 19.3 |
